# Test results as given in article PMC6770089, “Interaction Mechanism of Flavonoids and α-Glucosidase: Experimental and Molecular Modelling Studies” (Foods, 2019).
# Biological target: T1, α-glucosidase
# T1 construct: gene MAL12; docking used PDB 3A4A (isomaltase IMA1), not the tested protein
# Assay: pNP-G hydrolysis, absorbance […] nm
# Type: biochemical, Saccharomyces cerevisiae
# Conditions: pNP-G (1 mM stock, 1 mL added), 0.1 M phosphate pH 6.8, 37 °C, 10 min preincubation
row,IC50 [µg/mL],SMILES
1,70.07,"O=c1cc(-c2ccccc2)oc2cc(O)cc(O)c12 [compound 7, chrysin]"
2,> 500,"C[C@@H]1O[C@@H](O[C@H]2[C@H](Oc3cc(O)c4c(c3)O[C@H](c3ccc(O)cc3)CC4=O)O[C@H](CO)[C@@H](O)[C@@H]2O)[C@H](O)[C@H](O)[C@H]1O [compound 12, naringin]"
3,27.22,"O=c1cc(-c2ccc(O)c(O)c2)oc2cc(O)cc(O)c12 [compound 5, luteolin]"
4,> 500,"COc1ccc([C@@H]2CC(=O)c3c(O)cc(O[C@@H]4O[C@H](CO[C@@H]5O[C@@H](C)[C@H](O)[C@@H](O)[C@H]5O)[C@@H](O)[C@H](O)[C@H]4O)cc3O2)cc1O [compound 13, hesperidin]"
5,36.29,"O=C(/C=C/c1ccc(O)cc1)c1ccc(O)cc1O [compound 6, isoliquiritigenin]"
6,5.50,"O=c1c(O)c(-c2ccc(O)c(O)c2)oc2cc(O)ccc12 [compound 2, fisetin]"
7,> 500,"O=C(O)[C@H]1O[C@@H](Oc2cc3oc(-c4ccccc4)cc(=O)c3c(O)c2O)[C@H](O)[C@@H](O)[C@@H]1O [compound 14, baicalin]"
8,286.60,"COc1ccc([C@@H]2CC(=O)c3c(O)cc(O)cc3O2)cc1O [compound 11, hesperetin]"
9,85.95,"O=C1c2c(O)cc(O)cc2O[C@H](c2cc(O)c(O)c(O)c2)[C@H]1O [compound 8, dihydromyricetin]"
10,123.04,"O=C(/C=C/c1ccc(O)cc1)c1ccccc1 [compound 9, 4-hydroxychalcone]"
11,6.75,"O=c1cc(-c2ccccc2)oc2cc(O)c(O)c(O)c12 [compound 4, baicalein]"
12,2.09,"O=c1c(O)c(-c2cc(O)c(O)c(O)c2)oc2cc(O)cc(O)c12 [compound 1, myricetin]"
13,199.10,"O=C(/C=C/c1ccccc1)c1ccc(O)cc1 [compound 10, 4′-hydroxychalcone]"

# System: T1, α-glucosidase
# Assay: intrinsic fluorescence quenching, excitation […] nm
# Type: binding, Saccharomyces cerevisiae
# Conditions: 298 K; double-log; n = 0.9843
row,Ka [L/mol],SMILES
1,77786,"O=c1c(O)c(-c2cc(O)c(O)c(O)c2)oc2cc(O)cc(O)c12 [compound 1, myricetin]"

# Same assay, conditions: 298 K; double-log; n = 1.0572
row,Ka [L/mol],SMILES
1,57637,"O=C1c2c(O)cc(O)cc2O[C@H](c2cc(O)c(O)c(O)c2)[C@H]1O [compound 8, dihydromyricetin]"
